Experiment [1] deals with bovine muscle progenitor cells. As to the kind of experiment: Serum-free myogenic differentiation with or without Notch pathway inhibition, brightfield microscopy (Example 5, FIG. 3). It counts as cell-based. The procedure:
Myogenic progenitor cells as disclosed in Example 2 were plated in Matrigel-coated (1:200 in PBS) plates at a seeding density of 40 k cells/cm^2 and cultured for 24 h in a serum-free proliferation medium as disclosed in Example 2. Myogenic differentiation was induced by adding an exemplary serum-free differentiation medium (Table 3) in the presence and absence of DAPT (gamma-Secretase inhibitor #ab120633, abcam) at 0 μM (absence of DAPT; control medium), 1 μM, 5 μM and 10 μM. Cells were imaged with brightfield microscopy and the differentiation phenotypes were compared.

For experiment [2], the system named is Bovine muscle progenitor cells. The experiment is described as follows: Serum-free myogenic differentiation of bovine muscle progenitor cells into myocytes (Example 3, FIG. 1 and 2). The format is cell-based, Bos taurus. Conditions: cells previously proliferated in serum-free proliferation medium, one inducer per medium (lactate 10 mM, LPA 5 uM, oxytocin 50 nM or glucagon 1 uM), different basal formulations. As to the method: The DMEM/F12 1:1 or 10:1 or 1:0 or alpha-MEM or M199 medium was supplemented with albumin (recombinant human albumin from Richcore) at 0.5 mg/ml, insulin (recombinant human insulin, 10-365 from Peprotech) at 19.4 ug/ml, transferrin (recombinant human transferrin, 10-366 from Peprotech) at 10.7 ug/ml, sodium selenite (S5261 from SigmaAldrich) at 0.014 ug/ml, Ethanolamine from Sigma Aldrich cat nr E9508 at 4 ug/ml, ascorbic acid (L-ascorbic acid 2-phosphate sesquimagnesium salt hydrate, A8960 from SigmaAldrich) at 115.22 ug/ml, EGF (recombinant human EGF, AF-100-15 from Peprotech) at 10 ng/ml and one of the following inducers: lactate (Sodium L-lactate, 71718 from SigmaAldrich) at 10 mM, LPA (Oleoyl-L-α-lysophosphatidic acid sodium salt, L7260 from SigmaAldrich) at 5 uM, oxytocin (06379 from SigmaAldrich) at 50 nM, or glucagon (G2044 from SigmaAldrich) at 1 uM.
Bovine muscle progenitor cells were isolated from a bovine muscle tissue (Bos taurus) and sorted based on their positive expression of CD29 as previously described (Ding et al., Sci. Rep., 17(8): 10808 (2018)). Muscle progenitor cells were propagated in a serum-free proliferation medium for at least 8 population doublings prior to differentiation. […]

With `C[C@H](NC(=O)Cc1cc(F)cc(F)c1)C(=O)N[C@H](C(=O)OC(C)(C)C)c1ccccc1` [DAPT], the “myogenic differentiation of bovine muscle progenitor cells into myocytes compared to control medium without DAPT” value in experiment [1] (DAPT 1 uM, 5 uM and 10 uM, serum-free differentiation medium of Table 3 (lactate 10 mM), FIG. 3) was “improved myogenic differentiation”. In addition, the “number of cells that fuse into myotubes” value in experiment [1] (DAPT added during myogenic differentiation) was “increases the number of cells that fuse into myotubes”.
For `C[C@H](O)C(=O)[O-].[Na+]` [lactate, Sodium L-lactate], the “induction of serum-free myogenic differentiation” value in experiment [2] was “induction of serum-free myogenic differentiation could be achieved”.

Values taken from patent US20240010984A1, “SERUM-FREE MEDIUM FOR DIFFERENTIATION OF A PROGENITOR CELL” (Mosa Meat B.V., priority 2020, published 2024).
